Legend:
[1] = tested on: asthma model mice; test: Anti-asthma pharmacodynamic experiment: airway hyperresponsiveness (Penh) after methacholine challenge; type: in vivo, female BALB/c mice; settings: compared with the model group
Protocol: Pharmacological Example 4: Pharmacodynamic Experiment on Anti-Asthma
The suspensions were stored at room temperature protected from light until use.
Positive control drug: Budesonide Suspension for Inhalation (specification: 2 mL: 1 mg; AstraZeneca Inc.; Lot No. : 327392) was diluted with injection-grade sodium chloride solution to 0.3 mg/ml as the positive control drug, and stored at room temperature protected from light until use.
Sixty female BALB/c mice underwent a one-week adaptive feeding period. Ten mice were randomly selected as the blank control group, while 50 mice were selected to establish asthma models.
From days 21 to 23 after sensitization, the mice in the model group and drug administration group were exposed to a 30-minute aerosol challenge with 5% OVA, while the mice in the blank control group were exposed to normal saline aerosol for the same duration.
Airway responsiveness was measured in all groups of mice after the last challenge. The mice were placed into a plethysmography chamber, and baseline Penh values were recorded. Subsequently, the mice were challenged with aerosolized methacholine at concentrations from low to high of 0, 6.25, and 12.5 mg/mL, with an aerosol volume of 100 µ L each time for 60 s. […] Penh values were then recorded for 3 min and averaged to compare the airway responsiveness of each group of mice.
Statistical analysis was performed using SPSS software. Measurement data were expressed as mean ± standard deviation. One-way ANOVA was used for intergroup comparisons. For data with homogeneous variance, LSD test was used; for data with heterogeneous variance, Dunnett-t test was used. A value of P < 0.05 was considered statistically significant.

[2] = tested on: inflammatory cytokines (TNF-α); test: Anti-uveitis pharmacodynamic experiment (LPS model): inflammatory cytokines in aqueous humor (ELISA); type: in vivo, male SD rats; settings: values not given
How it was run: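 Male SD rats given uveitis by single subplantar injection of LPS (Salmonella) 1 mg/kg, then bilateral ocular dosing of 40 µL 5 mg/5 mL ophthalmic suspension three times daily for 2 days.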

[3] = tested on: IL-17; test: Psoriasis experiment (imiquimod model): inflammatory cytokine in serum (ELISA); type: in vivo, mice; settings: compared with the model group
[4] = tested on: psoriasis model mice; test: Psoriasis experiment (imiquimod model): skin lesion (PASI) score; type: in vivo; settings: compared with the model group
Protocol: Positive control drug: Fluticasone Propionate Cream (specification: 0.05% × 15 g, Zhejiang Xianju Pharmaceutical Co. Ltd., Lot No. 211106), stored at room temperature protected from light until use.
Adult mice were selected, and the skin of 2 cm × 3 cm on the back of mice was locally depilated. The mice in the model group and drug administration group were applied with 62.5 mg of 5% imiquimod cream on their back for modeling, while the mice in the blank control group were applied with medical petroleum jelly on their back daily. The above procedures were performed once a day for 7 consecutive days.
The mice in the drug administration group were applied with the corresponding drugs on their backs daily at a dose of 0.2 g per mouse, while the blank control group and the model group were only applied with 0.2 g of the test sample drug matrix. One hour after drug administration, the drugs were wiped off with sterile cotton swabs, followed by the application of imiquimod. The above procedures were performed once a day for 7 consecutive days.
Referring to the clinical Psoriasis Area and Severity Index (PASI) scoring criteria, erythema, scaling, and thickness at the skin lesion sites were evaluated on a 0-4 scale on day 8 of modeling, and the total score was obtained by summing the three items.
• (1) Erythema: a score of 0 points indicates no erythema, a score of 1 point indicates erythema appearing light red, a score of 2 points indicates erythema appearing red, a score of 3 points indicates erythema appearing dark red, and a score of 4 points indicates erythema appearing extremely deep red; • (2) Scaling: a score of 0 points indicates no scaling on the surface, a score of 1 point indicates partial skin lesions covered with scaling, a score of 2 points indicates most skin lesions covered with scaling, a score of 3 points indicates almost all skin lesions covered with scaling in layers, and a score of 4 points indicates all skin lesions covered with scaling; • (3) Thickness: a score of 0 points indicates skin lesions flush with normal skin, a score of 1 point indicates skin lesions slightly elevated above normal skin surface, a score of 2 points indicates moderate elevation of skin lesions, a score of 3 points indicates thickened skin lesions with obvious elevation, and a score of 4 points indicates highly thickened skin lesions with prominent elevation.
Statistical analysis was performed using SPSS software, and the results were expressed as mean ± standard deviation. One-way ANOVA was used for intergroup comparisons. For data with homogeneous variance, the LSD test was used; for data with heterogeneous variance, the Dunnett-t test was used. A value of P < 0.05 was considered statistically significant.

[5] = tested on: epidermal layer in rats; test: Adverse reactions of continuous dermal administration: thickness of the epidermal layer (H&E sections); type: in vivo, SD rats; settings: compared with the blank control group
How it was run: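 SPF SD rats (230-250 g, both sexes) received topical application on a shaved 5 cm × 6 cm back area twice daily for one week, controls receiving blank matrix. Epidermal thickness then quantified on H&E-stained back skin sections at ×40.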

[6] = tested on: inflammatory cytokines IL-6 and IL-12; test: Anti-asthma pharmacodynamic experiment: inflammatory cytokines in bronchoalveolar lavage fluid (ELISA); type: in vivo, female BALB/c mice; settings: compared with the model group
[7] = Pharmacokinetic (PK) experiment in rats; type: in vivo, male SD rats; settings: same experimental conditions
How it was run: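 Male SD rats dosed by body weight, oral group fasted overnight until 4 h post-dose. Jugular blood sampled 2 min–24 h into heparin; plasma analysed and PK parameters derived from concentration–time data.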

[8] = tested on: uveitis model rats; test: Anti-uveitis pharmacodynamic experiment (LPS model): ocular pathological score; type: in vivo, male SD rats; settings: compared with the model group
[9] = tested on: dry eye syndrome model New Zealand rabbits; test: Dry eye syndrome experiment (benzalkonium chloride model): tear secretion test with phenol red cotton threads; type: in vivo, male New Zealand White rabbits; settings: compared with the model group
Protocol: Positive control drug: Fluorometholone Eye Drops (specification: 5 mL/5 mg; Santen Pharmaceutical (CHINA) Co., Ltd.; Lot No.: 1FM6625) was used as the positive control drug and stored at room temperature protected from light until use.
Thirty male New Zealand White rabbits (conventional grade) were prepared. Six rabbits were randomly selected as the blank control group, and the remaining animals were administered 0.1% benzalkonium chloride to the left eye twice daily (morning and evening) , 10 µL/animal each time. On day 6 of modeling, tear secretion was measured using phenol red cotton threads to determine whether the model was successfully established. […] During the administration, all animals except the blank control group were administered 10 µL of 0.1% benzalkonium chloride to the left eye once daily to maintain dry eye symptoms..
• Test time: D3, D7, D15; • Test animals: All animals were tested before grouping; all enrolled surviving animals were tested after administration; • Test method: Tear secretion was measured using phenol red cotton threads. The tear secretion test paper was folded and placed at the middle and outer 1/3 of the rabbit palpebral conjunctival sac for 1 min. The test paper was then removed, observed, and recorded for its wetting length. The test was repeated 3 times, and the values were averaged.
The normality and homogeneity of variance were tested by Levene's test. If there was no statistical significance (P > 0.05), one-way analysis of variance (ANOVA) was used for statistical analysis. If ANOVA was statistically significant (P ≤ 0.05), LSD test (parametric method) was used for comparative analysis. If the variance was heterogeneous (P ≤ 0.05), Kruskal-Wallis test was used. If the Kruskal-Wallis test was statistically significant (P ≤ 0.05), Dunnett's test (nonparametric method) was used for comparative analysis.

Compound	Effects on airway hyperresponsiveness (Penh values) in mice [1]	inflammatory cytokines in aqueous humor [2]	level of IL-17 / inflammatory cytokines in psoriasis model mice [3]	PASI scores [4]	thickness of the epidermal layer after continuous dermal administration [5]	Effects on inflammatory cytokines in bronchoalveolar lavage fluid of mice [6]	pharmacokinetic properties (plasma clearance rate, systemic exposure) [7]	ocular abnormalities / ocular pathological score [8]	tear secretion [9]
C[C@]12C=CC(=O)C=C1[C@@H](F)C[C@H]1[C@@H]3C[C@H]4OC(c5ccc(CSC6CCOC6=O)cc5)O[C@@]4(C(=O)OCF)[C@@]3(C)C[C@H](O)[C@@]12F (stereo partly drawn) [Compound 36, Fluoromethyl (2S,6aS,6bR,7S,8aS,8bS,11aR,12aS,12bS)-2,6b-difluoro-7-hydroxy-6a,8a-dimethyl-4-oxo-10-(4-( ((2-oxotetrahydrofuran-3-yl)thio)methyl)phenyl)-1,2,4,6a,6b,7,8,8a,11a,12,12a,12b-dodecahydro-8bH-naphtho[2',1':4,5]indeno[1,2-d][1,3]dioxole-8b-carboxylate]	significantly decreased the Penh values in mice	suppressed inflammatory cytokines in aqueous humor	significantly inhibited inflammatory cytokines in the skin of psoriasis model mice	significantly decreased PASI scores on day 7	no significant changes in the thickness of the epidermal layer observed	pharmacological effects similar to those of compound 23	pharmacokinetic properties similar to those of compound 8	significantly improved ocular abnormalities	significantly increased the tear secretion
C[C@]12C=CC(=O)C=C1[C@@H](F)C[C@H]1[C@@H]3C[C@H]4OC(c5ccc(CSC6CCOC6=O)cc5)O[C@@]4(C(=O)OCC#N)[C@@]3(C)C[C@H](O)[C@@]12F (stereo partly drawn) [Compound 37, Cyanomethyl (2S,6aS,6bR,7S,8aS,8bS,11aR,12aS,12bS)-2,6b-difluoro-7-hydroxy-6a,8a-dimethyl-4-oxo-10-(4-( ((2-oxotetrahydrofuran-3-yl)thio)methyl)phenyl)-1,2,4,6a,6b,7,8,8a,11a,12,12a,12b-dodecahydro-8bH-naphtho[2',1':4,5]indeno[1,2-d][1,3]dioxole-8b-carboxylate]	significantly decreased the Penh values in mice	suppressed inflammatory cytokines in aqueous humor	significantly inhibited inflammatory cytokines in the skin of psoriasis model mice	significantly decreased PASI scores on day 7	no significant changes in the thickness of the epidermal layer observed	pharmacological effects similar to those of compound 23	pharmacokinetic properties similar to those of compound 8	significantly improved ocular abnormalities	significantly increased the tear secretion
C[C@]12C=CC(=O)C=C1[C@@H](F)C[C@H]1[C@@H]3C[C@H]4OC(c5ccc(CSC6CCOC6=O)nc5)O[C@@]4(C(=O)CO)[C@@]3(C)C[C@H](O)[C@@]12F (stereo partly drawn) [Compound 46, (25,6aS,6bR,78,8a8,8bS,11aR,12a8,12b8S)-2,6b-Difluoro-7-hydroxy-8b-(2-hydroxyacetyl)-6a,8a-dimethyl-10-(6-(((2-oxotetrahydrofuran-3-yl)thio)methyl)pyridin-3-yl)-1,2,6a,6b,7,8,8a,8b,11a,12, 12a,12b-dodecahydro-4H-naphtho[2',1':4,5]indeno[1,2-d][1,3]dioxol-4-one]	significantly decreased the Penh values in mice	suppressed inflammatory cytokines in aqueous humor	significantly inhibited inflammatory cytokines in the skin of psoriasis model mice	significantly decreased PASI scores on day 7	no significant changes in the thickness of the epidermal layer observed	pharmacological effects similar to those of compound 23	pharmacokinetic properties similar to those of compound 8	significantly improved ocular abnormalities	significantly increased the tear secretion
C[C@]12C=CC(=O)C=C1CC[C@H]1[C@@H]3C[C@H]4OC(c5ccc(CSC6CCOC6=O)nc5)O[C@@]4(C(=O)CO)[C@@]3(C)C[C@H](O)[C@@]12F (stereo partly drawn) [Compound 47, (6aS,6bR,7S,8aS,8bS,11aR,12aS,12bS)-6b-Fluoro-7-hydroxy-8b-(2-hydroxyacetyl)-6a,8a-dimethyl-10-(6-(((2-oxotetrahydrofuran-3-yl)thio)methyl)pyridin-3-yl)-1,2,6a,6b,7,8,8a,8b,11a,12,12a,12 b-dodecahydro-4H-naphtho[2',1':4,5]indeno[1,2-d][1,3]dioxol-4-one]	significantly decreased the Penh values in mice	suppressed inflammatory cytokines in aqueous humor	significantly inhibited inflammatory cytokines in the skin of psoriasis model mice	significantly decreased PASI scores on day 7	no significant changes in the thickness of the epidermal layer observed	pharmacological effects similar to those of compound 23	pharmacokinetic properties similar to those of compound 8	significantly improved ocular abnormalities	significantly increased the tear secretion

From EP4635969A1, “NOVEL GLUCOCORTICOID, METHOD FOR PREPARING SAME, AND USE THEREOF” (Tianjin Pharmaceutical Biotechnology Co., Ltd., priority 2022, dated 2024)
